Paper PMC6178619, “Arylvinylpiperazine Amides, a New Class of Potent Inhibitors Targeting QcrB of Mycobacterium tuberculosis” (mBio, 2018)
In brackets after ≈: the same amount, converted by molar mass. Like-named read-outs stand apart in the source and are kept apart here.

How the values were obtained:
[1] = test system: M. tuberculosis H37Rv ΔcydAB; format: cell-based; conditions: ΔcydAB strain; AX-35 14 µM, Q203 0.3 µM (100× MIC50)
Staphylococcus aureus = test: MIC by REMA; format: cell-based
[2] = test system: M. tuberculosis H37Rv-infected THP-1 macrophages; test: microbe, parasite or virus in culture; format: cell-based; conditions: Mycobacterium tuberculosis, THP-1, 48 h, read-out: Antimycobacterial activity against M. tuberculosis H37Rv, ex vivo in THP-1 macrophages (IC50)
[3] = test system: Corynebacterium glutamicum; test: MIC by REMA; format: cell-based
[4] = test system: Corynebacterium diphtheriae; test: MIC by REMA; format: cell-based
Candida albicans = test: MIC by REMA; format: cell-based
HepG2 cells = format: cell-based, human
Experimental: Human HepG2 cells (4,000 cells/well) were incubated for 3 days with 2-fold serially diluted compounds at 37°C under an atmosphere of 5% CO2. Cell viability was determined by the addition of resazurin (0.0025% wt/vol) for 4 h at 37°C, and the fluorescence intensity was measured as in REMA.

[5] = test system: H37Rv ΔcydAB::cydAB complemented strain; format: cell-based
[6] = test system: Salmonella enterica serovar Typhimurium; test: MIC by REMA; format: cell-based
Escherichia coli = test: MIC by REMA; format: cell-based
Mycobacterium ulcerans = test: MIC by REMA; format: cell-based
Mycobacterium marinum = test: MIC by REMA; format: cell-based
M. tuberculosis H37Rv [7] = test: MIC by resazurin reduction microplate assay (REMA); format: cell-based, Mycobacterium tuberculosis
M. tuberculosis H37Rv [8] = format: cell-based; conditions: AX-35 14 µM, Q203 0.3 µM (100× MIC50), glucose
Pseudomonas putida = test: MIC by REMA; format: cell-based
Bacillus subtilis = test: MIC by REMA; format: cell-based
Mycobacterium smegmatis = test: MIC by REMA; format: cell-based; conditions: Mycolicibacterium smegmatis
Listeria monocytogenes = test: MIC by REMA; format: cell-based
M. tuberculosis H37Rv [9] = conditions: cited from earlier work
[10] = test system: Mycobacterium canettii STB-L; test: MIC by REMA; format: cell-based; conditions: Mycobacterium canetti
Pseudomonas aeruginosa = test: MIC by REMA; format: cell-based
Enterococcus faecalis = test: MIC by REMA; format: cell-based
Mycobacterium avium = test: MIC by REMA; format: cell-based
M. tuberculosis H37Rv [11] = test: Acute mouse model of TB; format: in vivo, mouse (BALB/c); conditions: for Reduction of bacterial load in mouse lungs vs TPGS vehicle control: once daily for 10 days
Mycobacterium vaccae = test: MIC by REMA; format: cell-based; conditions: Mycolicibacterium vaccae
Micrococcus luteus = test: MIC by REMA; format: cell-based
[12] = test system: Mycobacterium massiliense; test: MIC by REMA; format: cell-based; conditions: Mycobacteroides abscessus
in vitro = test: in vitro
Experimental: Metabolic stability of the compounds was measured based on intrinsic clearance (Clint) in mouse and human liver microsomes as previously described ([42]). The final compound concentration in the mixture of microsomes and NADPH regeneration system was 2 µg/ml, and a mixture without NADPH regeneration was also prepared for each compound as a control of the stability of the compound with time.

Mycobacterium bovis BCG = test: microbe, parasite or virus in culture; format: cell-based; conditions: Mycobacterium tuberculosis variant bovis BCG
M. tuberculosis H37Rv [13] = format: cell-based; conditions: up to a concentration 32-fold higher than the MIC, 7 days
M. bovis BCG = conditions: cited from earlier work
wild-type H37Rv = format: cell-based, Mycobacterium tuberculosis; conditions: 2.5× MIC, 24 h exposure
[14] = H37RV; Mycobacterium tuberculosis (Table 2 panel); read-out: MIC
[15] = Mycobacterium tuberculosis, H37RV, 144 h; read-out: Antimycobacterial activity against M. tuberculosis H37Rv, in vitro (MIC)
[16] = Mycobacterium canettii STB-L, read-out: MIC

SMILES | MIC (Staphylococcus aureus) [µg/mL] | IC50 [2] [µg/mL] | MIC [3] [µg/mL] | MIC [4] [µg/mL] | MIC (Candida albicans) [µg/mL] | Cytotoxicity in HepG2 cells (TD50) (HepG2 cells; 3 days incubation) [µg/mL] | MIC [6] [µg/mL] | MIC (Escherichia coli) [µg/mL] | MIC (Mycobacterium ulcerans) [µg/mL] | MIC (Mycobacterium marinum) [µg/mL] | MIC (M. tuberculosis H37Rv [7]; [15]) [µg/mL] | MIC (Pseudomonas putida) [µg/mL] | MIC (Bacillus subtilis) [µg/mL] | MIC (Mycobacterium smegmatis) [µg/mL] | MIC (Listeria monocytogenes) [µg/mL] | MIC (Pseudomonas aeruginosa) [µg/mL] | MIC (Enterococcus faecalis) [µg/mL] | MIC (Mycobacterium avium) [µg/mL] | MIC (Mycobacterium vaccae) [µg/mL] | MIC (Micrococcus luteus) [µg/mL] | other results
O=C(/C=C/c1cccs1)N1CCN(Cc2ccc3c(c2)OCO3)CC1 [AX-35, (E)-1-(4-(Benzo[d][1,3]dioxol-5-ylmethyl)piperazin-1-yl)-3-(thiophen-2-yl)prop-2-en-1-one] | > 100 | 0.1 (≈ 0.281 µM) | > 100 | > 100 | > 100 | 50 | > 100 | 74 (≈ 208 µM) | 1.6 (≈ 4.49 µM) | 11.5 (≈ 32.3 µM) | 0.05 (≈ 0.14 µM) | > 100 | > 100 | 100 (≈ 281 µM) | > 100 | > 100 | > 100 | 8.2 (≈ 23 µM) | 12.1 (≈ 33.9 µM) | > 100 | Increase in OCR on compound addition [1]: no longer observed; Outcome of AX-35 treatment in complemented strain [5]: survival of the bacteria; Antimycobacterial activity against M. tuberculosis H37Rv, in vitro (MIC) (M. tuberculosis H37Rv [7]): 0.05 µg/mL; MIC (M. tuberculosis H37Rv [7]; [14]): 0.05 µg/mL (≈ 0.14 µM); Oxygen consumption rate (OCR) change from basal on compound addition (M. tuberculosis H37Rv [8]): increase; MIC (M. tuberculosis H37Rv [9]): 0.3 µM (≈ 0.107 µg/mL); MIC [10, 16]: 0.003 µg/mL (≈ 0.00842 µM); Reduction of bacterial load in mouse lungs vs TPGS vehicle control (M. tuberculosis H37Rv [11]; oral 200 mg/kg): 0.4 log10; MIC [12]: 7.7 µg/mL (≈ 21.6 µM); Clearance Category (in vitro; human, microsomes): medium; microsomal CLint at 2 µg/ml (in vitro; human, microsomes): 21.7 µL/min/mg; Clearance Category (in vitro; mouse, microsomes): high; microsomal CLint at 2 µg/ml (in vitro; mouse, microsomes): 120 µL/min/mg; MIC (Mycobacterium bovis BCG): 0.8 µg/mL (≈ 2.24 µM); Mode of action (MBC, 99.9% killed) (M. tuberculosis H37Rv [13]): bacteriostatic; MIC (M. bovis BCG): 0.3 µM (≈ 0.107 µg/mL); Intracellular ATP level, lower than untreated control (wild-type H37Rv): ~90%
O=C(/C=C/c1ccsc1)N1CCN(Cc2ccc3c(c2)OCO3)CC1 [AX-36, (E)-1-(4-(Benzo[d][1,3]dioxol-5-ylmethyl)piperazin-1-yl)-3-(thiophen-3-yl)prop-2-en-1-one] | > 100 | 0.3 (≈ 0.842 µM) | > 100 | > 100 | > 100 | 37.5 | > 100 | 100 (≈ 281 µM) | 1.6 (≈ 4.49 µM) | 19.6 (≈ 55 µM) | 0.1 (≈ 0.281 µM) | > 100 | > 100 | 63 (≈ 177 µM) | > 100 | > 100 | > 100 | 12.8 (≈ 35.9 µM) | 26.9 (≈ 75.5 µM) | > 100 | MIC (M. tuberculosis H37Rv [7]; [14]): 0.1 µg/mL (≈ 0.281 µM); MIC [10, 16]: 0.01 µg/mL (≈ 0.0281 µM); MIC [12]: 10.4 µg/mL (≈ 29.2 µM); Clearance Category (in vitro; human, microsomes): medium; microsomal CLint at 2 µg/ml (in vitro; human, microsomes): 16.8 µL/min/mg; Clearance Category (in vitro; mouse, microsomes): high; microsomal CLint at 2 µg/ml (in vitro; mouse, microsomes): 117 µL/min/mg; MIC (Mycobacterium bovis BCG): 0.8 µg/mL (≈ 2.24 µM); Intracellular ATP level, lower than untreated control (wild-type H37Rv): ~90%
O=C(/C=C/c1cscn1)N1CCN(Cc2ccc3c(c2)OCO3)CC1 [AX-37, (E)-1-(4-(Benzo[d][1,3]dioxol-5-ylmethyl)piperazin-1-yl)-3-(1λ^3,3λ^2-thiazol-4-yl)prop-2-en-1-one] | – | 0.2 (≈ 0.56 µM) | – | – | – | 25 | – | – | – | – | 0.1 (≈ 0.28 µM) | – | – | – | – | – | – | – | – | – | Reduction of bacterial load in mouse lungs vs TPGS vehicle control (M. tuberculosis H37Rv [11]; oral 100 mg/kg): 0.6 log10
O=C(/C=C/c1ccccc1)N1CCN(Cc2ccc3c(c2)OCO3)CC1 [AX-38, (E)-1-(4-(Benzo[d][1,3]dioxol-5-ylmethyl)piperazin-1-yl)-3-phenylprop-2-en-1-one] | – | 0.3 (≈ 0.856 µM) | – | – | – | 37.5 | – | – | – | – | 0.2 (≈ 0.571 µM) | – | – | – | – | – | – | – | – | – | Clearance Category (in vitro; human, microsomes): medium; microsomal CLint at 2 µg/ml (in vitro; human, microsomes): 13.3 µL/min/mg; Clearance Category (in vitro; mouse, microsomes): high; microsomal CLint at 2 µg/ml (in vitro; mouse, microsomes): 63.8 µL/min/mg
O=C(/C=C/c1nccs1)N1CCN(Cc2ccc3c(c2)OCO3)CC1 [AX-39, (E)-1-(4-(Benzo[d][1,3]dioxol-5-ylmethyl)piperazin-1-yl)-3-(thiazol-2-yl)prop-2-en-1-one] | – | 1.8 (≈ 5.04 µM) | – | – | – | 75 | – | – | – | – | 0.3 (≈ 0.839 µM) | – | – | – | – | – | – | – | – | – | Reduction of bacterial load in mouse lungs vs TPGS vehicle control (M. tuberculosis H37Rv [11]; oral 100 mg/kg): 0.9 log10
NC(=O)N1c2ccccc2C=Cc2ccccc21 [Carbamazepine, reference compound] | – | – | – | – | – | – | – | – | – | – | – | – | – | – | – | – | – | – | – | – | Clearance Category (in vitro; human microsomes, compound 2 µg/ml): low; Clearance Category (in vitro; mouse microsomes, compound 2 µg/ml): low
CCc1nc2ccc(Cl)cn2c1C(=O)NCc1ccc(N2CCC(c3ccc(OC(F)(F)F)cc3)CC2)cc1 [Compound Q203, reference compound] | – | – | – | – | – | – | – | – | – | – | – | – | – | – | – | – | – | – | – | – | Increase in OCR on compound addition [1]: no longer observed; Oxygen consumption rate (OCR) change from basal on compound addition (M. tuberculosis H37Rv [8]): increase
NNC(=O)c1ccncc1 [INH, isoniazid, reference compound] | – | – | – | – | – | – | – | – | – | – | – | – | – | – | – | – | – | – | – | – | log10 CFU per lung (M. tuberculosis H37Rv [11]; 25 mg/kg oral, Day 10): below l.o.d.
CO[C@H]1/C=C/O[C@@]2(C)Oc3c(C)c(O)c4c(O)c(c(/C=N/N5CCN(C)CC5)c(O)c4c3C2=O)NC(=O)/C(C)=C\C=C\[C@H](C)[C@H](O)[C@@H](C)[C@@H](O)[C@@H](C)[C@H](OC(C)=O)[C@@H]1C [Rifampin, rifampin, reference compound] | 3.8 (≈ 4.62 µM) | 0.1 (≈ 0.122 µM) | 0.004 (≈ 0.00486 µM) | 0.0004 (≈ 0.000486 µM) | 1.5 (≈ 1.82 µM) | – | 0.7 (≈ 0.851 µM) | 6.7 (≈ 8.14 µM) | 0.01 (≈ 0.0122 µM) | 0.5 (≈ 0.608 µM) | – | 0.2 (≈ 0.243 µM) | 0.3 (≈ 0.365 µM) | 1.7 (≈ 2.07 µM) | 0.8 (≈ 0.972 µM) | 1 (≈ 1.22 µM) | 0.6 (≈ 0.729 µM) | 25 (≈ 30.4 µM) | 2.5 (≈ 3.04 µM) | 0.7 (≈ 0.851 µM) | Cytotoxicity in HepG2 cells (TD50) (HepG2 cells; human): 75 µg/mL; MIC (M. tuberculosis H37Rv [7]; Mycobacterium tuberculosis, H37RV): 0.001 µg/mL (≈ 0.00122 µM); MIC (M. tuberculosis H37Rv [7]; Mycobacterium tuberculosis, H37RV, 144 h, read-out: Antimycobacterial activity against M. tuberculosis H37Rv, in vitro (MIC)): 0.0008 µg/mL (≈ 0.000972 µM); MIC [10]: 0.002 µg/mL (≈ 0.00243 µM); MIC [12]: 26.9 µg/mL (≈ 32.7 µM); MIC (Mycobacterium bovis BCG): 0.0008 µg/mL (≈ 0.000972 µM)
